How the values were obtained:
[1] = Tissue, plasma, rectal and GI content pharmacokinetics of tacrolimus, oral vs intra-cecal ingestible device (Example 10); set-up: species or system Yorkshire-Cross farm swine; settings: in vivo
Procedure: (§1) No further randomization procedure was employed.
Animals in Group 1 received an ingestible device containing 0.8 mL of vehicle solution (8000 alcohol, 2000 HCO-60). Animals in Group 2 received orally […] liquid formulation of tacrolimus at 4 mg/0.8 mL per animal (Prograf: 5 mg/mL). Animals in Group 3 received intra-cecally an ingestible device containing tacrolimus at 1 mg in 0.8 mL per ingestible device. Animals in Group 4 received intra-cecally an ingestible device containing tacrolimus at 2 mg in 0.8 mL per ingestible device. Animals in Group 5 received intra-cecally an ingestible device containing tacrolimus at 4 mg in 0.8 mL per ingestible device. To control for potential confounding effects of the surgery, all groups fast on Day −11 at least 24 hr before being subjected to anesthesia followed by surgical placements of a cecal port by a veterinary surgeon at Day −10. All animals were fasted for at least 12 hr prior to dosing on Day 1. Animals were dosed via either intra-cecal dosing (IC) or oral dosing (PO) at Day 1 (between 6-8 p.m.). All animals resumed feeding at approximately 4 hours after dose (11-12 p.m. after dosing).
Animals in Group 1 (Vehicle Control) were administered a single intra-cecal ingestible device containing 0.8 mL Vehicle solution (80% alcohol, 20% castor oil (HCO-60) on Day 1. On Day −10 the animals were anesthetized, and a veterinary surgeon surgically placed an intra-cecal port in each animal. On Day 1, each animal was placed into a sling then a single intra-cecal ingestible device containing 0.8 mL vehicle solution (80% alcohol, 20% castor oil (HCO-60)) is introduced by the veterinary surgeon into the cecum via the cecal port in each animal. Following ingestible device placement, the animals were removed from the slings and placed back into their pens with water. All animals resumed feeding at approximately 4 hours after dose. […] A total of 60 samples were collected.
Approximately 200-400 mg of rectal content were collected, if available, with a fecal swab (Copan Diagnostics Nylon Flocked Dry Swabs, 502CS01). The fecal swab was pre-weighed and weighed after collection in the collection tube (Sterile Tube and Cap No Media, PFPM913S), and the sample weight was recorded. […]
For tissue necropsy, small intestine fluid and cecal fluid were collected separately from all the animals into two separate square plastic bottles, and stored at −20° C. The length and diameter of the cecum and the colon was measured from one animal in each group and recorded for reference. […] All samples were weighed, and the tissue sample weights were recorded. […] Around 3 grams of the total punched sample were collected into a pre-weighed 15-mL conical tube, and the tissue weight was recorded. […]

[2] = Pharmacokinetic study of oral vs intra-cecal tacrolimus: blood, rectal content, GI tissue and luminal content, tissue/plasma ratios (Example 13); set-up: species or system Yorkshire-Cross farm swine; settings: female, Yorkshire-Cross, swine, in vivo, 0.09 mg/kg
Source text: as §1

C=CC[C@@H]1/C=C(\C)C[C@H](C)C[C@H](OC)[C@H]2O[C@@](O)(C(=O)C(=O)N3CCCC[C@H]3C(=O)O[C@H](/C(C)=C/[C@@H]3CC[C@@H](O)[C@H](OC)C3)[C@H](C)[C@@H](O)CC1=O)[C@H](C)C[C@@H]2OC [tacrolimus]
luminal content (spiral, transverse, and distal colon) concentrations [1]: Significantly higher
mean concentration of tacrolimus in the cecum tissue and the proximate colon tissue [1]: higher
tissue (spiral and transverse colon) concentrations [1]: Significantly higher
level of tacrolimus in tissue ([1]; po): No measurable level
Ratio Tissue(mean) (ng/g)/AUG(0-12 hr) (ng · hr/ml) ([2]; 12 h): 0
Ratio Tissue(mean) (ng/g)/Trough(12 hr)(ng/ml) ([2]; 12 h): 0
Trough (12 hr) ([2]; 12 h): 0.568 ng/mL
concentration at 12 h ([2]; Trough (12 hr)): 0.568 ± 0.291 ng/mL

Source: US20240335644A1, “TREATMENT OF A DISEASE OF THE GASTROINTESTINAL TRACT WITH AN IMMUNE MODULATORY AGENT RELEASED USING AN INGESTIBLE DEVICE” (BIORA THERAPEUTICS, INC., priority 2017, published 2024)
